Counter-ions that a name gives are not always drawn. Like-named read-outs stand apart in the source and are kept apart here.
How the values were obtained:
[1] = system: spontaneous hypertensive rat; assay: antihypertensive activity, spontaneous hypertensive rat (SHR) test, indirect tail cuff method; format: in vivo
Procedure: Compounds of this invention are useful as antihypertensive agents due to their ability to depress blood pressure in mammals. Antihypertensive activity is measured in the spontaneous hypertensive rat by the indirect tail cuff method described by A. Schwartz, Ed., Methods in Pharmacology, Vol. page 135, Appleton Century Crafts, New York (1971). […] The drop in blood pressure is measured on the third day following administration. The antihypertensive activity is expressed as mm Hg decrease in mean arterial blood pressure.

mice = assay: phenylquinone-induced writhing test in mice (PQW), analgesia; format: in vivo, male, CD-1 mice; details: Mus musculus; for change in vivo at 20 mg/kg: 20 mg/kg SC; for change in vivo at 20 mg/kg / change in vivo at 5 mg/kg: read-out: PQW % (percent inhibition of writhing); for ED50: SC, read-out: ED50 (PQW); for change in vivo at 5 mg/kg: 5 mg/kg SC
Procedure: Compounds of this invention produce analgesia when administered to mammals. A phenylquinone-induced writhing test in mice (PQW) was used as an assay to detect analgesia. The procedure employed was a modification of Siegmund, E., Cadmus, R. and Lu, G: Proc. Soc. Exptl. Bio. Med., 95: 729 (1957). 12.5 mg of phenyl-p-benzoquinone were dissolved in 5 ml of 95% ethanol and q.s. to 100 ml with distilled water and administered to mice (10 ml/kg, i.p.). This produces a characteristic "writhe" which is defined as an inward rotation of one or more feet with twisting and turning of the trunk, drawing in of the abdominal wall, lordosis and arching of the back.
A total of 28 male, CD-1 mice (18 to 30 grams) were employed for a time response. Animals recived food and water ad libitum. Drugs to be tested were prepared with distilled water and, if insoluble, one drop of a suitable surfactant was added.
Twenty animals (5/group) were administered the drug 15, 30, 45 and 60 minutes prior to phenylquinone injections. Control animals (2/group) received an equal amount of vehicle. After the administration of phenylquinone the mice were placed separately into one-liter beakers and 5 minutes were allowed to lapse. The mice were then observed for a period of 10 minutes and the number of writhes were recorded for each animal. The formula for computing percent inhibition is: [formula]
The time period with the greatest percent of inhibition is considered the peak time.
A dose range is run in the same fashion as a time response except 10 animals per group were tested at the peak time of drug activity. Fifty animals, 4 drug groups, and a vehicle control were employed. Animals were dosed and tested in a randomized manner. An estimated ED50 was calculated by a computer linear regression analysis.

Row | Structure (SMILES) | SHR mm Hg (decrease in mean arterial blood pressure) ([1]; Table II, 50 mg/kg PO) | SHR mm Hg (decrease in mean arterial blood pressure) ([1]; Table III, 50 mg/kg PO) | change in vivo at 20 mg/kg (mice; Table III) | also measured
1 | CC1Oc2ccccc2COC12CCN(CCc1ccc(N)cc1)CC2 (centres unmarked) [Example 57, 1'-[2-(4-Aminophenyl)ethyl]-2-methylspiro[2H-1,4-benzodioxepin-3(5H)4'-piperidine]maleate hydrate] | -12 mm Hg | – | – | change in vivo at 20 mg/kg (mice; Table II): -99%
2 | CC(=O)N1CCC2(CC1)OCc1cc([N+](=O)[O-])ccc1OC2C (centres unmarked) [Example 80, 1'-Acetyl-2-methyl-7-nitrospiro[2H-1,4-benzodioxepin-3(5H)4'-piperidine]] | – | -19 mm Hg | -22% | –
3 | CC1Oc2ccc(F)cc2COC12CCN(CCCC(c1cccc(F)c1)c1cccc(F)c1)CC2 (centres unmarked) [Example 76, 1'-[4,4-Bis(3-fluorophenyl)butyl]-7-fluoro-2-methylspiro[2H-1,4-benzodioxepin-3(5H)4'-piperidine]hydrochloride] | – | – | -38% | SHR mm Hg (decrease in mean arterial blood pressure) ([1]; Table III, 0.3 mg/kg PO): -31 mm Hg
4 | CC1Oc2ccccc2COC12CCN(CCN)CC2 (centres unmarked) [Example 49, 1'-(2-Aminoethyl)-2-methylspiro[2H-1,4-benzodioxepin-3(5H)4'-piperidine]dioxalate] | -23 mm Hg | – | – | change in vivo at 20 mg/kg (mice; Table II): -85%; ED50 (mice; Table II, computer linear regression, peak time): 4.7 mg/kg
5 | CC1Oc2ccccc2COC12CCN(CCC#N)CC2 (centres unmarked) [Example 67, 1'-(2-Cyanoethyl)-2-methylspiro[2H-1,4-benzodioxepin-3(5H)4'-piperidine]oxalate] | -30 mm Hg | – | – | change in vivo at 20 mg/kg (mice; Table II): -40%
6 | CC1Oc2ccccc2COC12CCN(CC(O)COc1ccccc1)CC2 (centres unmarked) [Example 88, 2-Methyl-1'-(2-hydroxy-3-phenoxypropyl)spiro[2H-1,4-benzodioxepin-3(5H)4'-piperidine]hydrochloride] | – | -34 mm Hg | -99% | –
7 | CNC(=O)N1CCC2(CC1)OCc1ccccc1OC2C (centres unmarked) [Example 70, N,2-Dimethylspiro[2H-1,4-benzodioxepin-3(5H)4'-piperidine]-1'-carboxamide] | – | -39 mm Hg | -35% | –
8 | CC1Oc2ccc(F)cc2COC12CCN(CCCCc1ccc(F)cc1)CC2 (centres unmarked) [Example 77, 1'-[4-(4-Fluorophenyl)butyl]-7-fluoro-2-methylspiro[2H-1,4-benzodioxepin-3(5H)4'-piperidine]hydrochloride] | – | -40 mm Hg | – | change in vivo at 5 mg/kg (mice; Table III): -66%; ED50 (mice; Table III, printed in PQW % column): 4.3 mg/kg
9 | CCNC(=O)N1CCC2(CC1)OCc1ccccc1OC2C (centres unmarked) [Example 71, N-Ethyl-2-methylspiro[2H-1,4-benzodioxepin-3(5H)4'-piperidine]-1'-carboxamide] | – | -67 mm Hg | -46% | –
10 | CC1Oc2ccc(Cl)cc2COC12CCN(CCCCC(c1ccc(F)cc1)c1ccc(F)cc1)CC2 (centres unmarked) [Example 86, 7-Chloro-2-methyl-1'-[5,5-bis(4-fluorophenyl)pentyl]-spiro[2H-1,4-benzodioxepin-3(5H)4'-piperidine]hydrochloride] | – | -42 mm Hg | -25% | –
11 | CC1Oc2ccccc2COC12CCN(CCCc1noc3cc(F)ccc13)CC2 (centres unmarked) [Example 52, 1'-[3-(6-Fluoro-1,2-benzisoxazol-3-yl)propyl]-2-methylspiro[2H-1,4-benzodioxepin-3(5H)4'-piperidine]maleate] | -67 mm Hg | – | – | change in vivo at 5 mg/kg (mice; Table II): -82%
12 | CC1Oc2ccccc2COC12CCN(CCc1ccccc1)CC2 (centres unmarked) [Example 46, 2-Methyl-1'-(2-phenylethyl)-spiro[2H-1,4-benzodioxepin-3(5H)4'-piperidine]hydrochloride] | -12 mm Hg | – | – | change in vivo at 5 mg/kg (mice; Table II): -87%
